# Experimental data taken from ChEMBL document CHEMBL4610120, “New Broad-Spectrum Antibiotics Containing a Pyrrolobenzodiazepine Ring with Activity against Multidrug-Resistant Gram-Negative Bacteria” (J Med Chem, 2020).
# Legend:
# [1] = system: Klebsiella pneumoniae; assay: Ratio of MIC for multidrug-resistant Klebsiella pneumoniae 16 to MIC for multidrug-resistant Klebsiella pneumoniae 16 in presence of membrane permeabilizer PMBN; assay type: functional
# [2] = system: Pseudomonas aeruginosa; assay: Ratio of MIC for Pseudomonas aeruginosa PAO1 to MIC for Pseudomonas aeruginosa PAO1 in presence of membrane permeabilizer PMBN; assay type: functional
# [3] = system: Klebsiella pneumoniae; assay: Antimicrobial activity against multidrug-resistant Klebsiella pneumoniae NCTC 13438 in presence of efflux pump inhibitor PAbetaN by microdilution broth method; assay type: functional
# [4] = Ratio of MIC for Pseudomonas aeruginosa PAO1 to MIC for Pseudomonas aeruginosa PW1783 harboring MexAB-OprM mutant; assay type: functional
# [5] = system: Acinetobacter baylyi; assay: Antimicrobial activity against multidrug-resistant Acinetobacter baylyi ADP1 by microdilution broth method; assay type: functional
# [6] = target: T1, Protein RecA (Escherichia coli K-12) (UniProt P0A7G6); assay: Induction of Escherichia coli K12 MG1655 recA promotor measured at 30 mins interval for 20 hrs by fluorescence assay relative to control; conditions: Escherichia coli str. K-12 substr. MG1655
# T1 sequence (whole entry): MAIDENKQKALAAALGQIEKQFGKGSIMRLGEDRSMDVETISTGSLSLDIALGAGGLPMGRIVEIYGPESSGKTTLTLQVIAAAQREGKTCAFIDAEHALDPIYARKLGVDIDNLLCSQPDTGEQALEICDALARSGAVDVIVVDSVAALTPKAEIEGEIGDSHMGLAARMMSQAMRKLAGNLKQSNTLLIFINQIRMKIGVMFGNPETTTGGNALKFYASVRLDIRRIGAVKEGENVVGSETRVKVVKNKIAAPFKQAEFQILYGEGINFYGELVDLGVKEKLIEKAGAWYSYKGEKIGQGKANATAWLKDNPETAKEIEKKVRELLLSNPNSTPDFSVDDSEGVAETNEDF
# [7] = Antimicrobial activity against multidrug-resistant Burkholderia cepacia complex NCTC 10743 by microdilution broth method; assay type: functional
# [8] = system: Burkholderia cenocepacia; assay: Antimicrobial activity against multidrug-resistant Burkholderia cenocepacia K56-2 by microdilution broth method; assay type: functional
# [9] = Selectivity ratio of cytotoxicity against human WI38 cells to MIC for methicillin resistant Staphylococcus aureus NCTC 13616; assay type: toxicity, cell-based
# [10] = target: DNA gyrase (Staphylococcus aureus, UniProt P0A0K8+P20831); assay: Inhibition of Staphylococcus aureus DNA gyrase using relaxed pNO1 as substrate by gel based fluorescence assay; assay type: protein-complex assay
# [11] = target: T2, DNA repair protein RecN (Escherichia coli) (UniProt P05824); assay: Induction of Escherichia coli K12 MG1655 recN promotor measured at 30 mins interval for 20 hrs by fluorescence assay relative to control; conditions: Escherichia coli str. K-12 substr. MG1655
# T2 sequence (whole entry): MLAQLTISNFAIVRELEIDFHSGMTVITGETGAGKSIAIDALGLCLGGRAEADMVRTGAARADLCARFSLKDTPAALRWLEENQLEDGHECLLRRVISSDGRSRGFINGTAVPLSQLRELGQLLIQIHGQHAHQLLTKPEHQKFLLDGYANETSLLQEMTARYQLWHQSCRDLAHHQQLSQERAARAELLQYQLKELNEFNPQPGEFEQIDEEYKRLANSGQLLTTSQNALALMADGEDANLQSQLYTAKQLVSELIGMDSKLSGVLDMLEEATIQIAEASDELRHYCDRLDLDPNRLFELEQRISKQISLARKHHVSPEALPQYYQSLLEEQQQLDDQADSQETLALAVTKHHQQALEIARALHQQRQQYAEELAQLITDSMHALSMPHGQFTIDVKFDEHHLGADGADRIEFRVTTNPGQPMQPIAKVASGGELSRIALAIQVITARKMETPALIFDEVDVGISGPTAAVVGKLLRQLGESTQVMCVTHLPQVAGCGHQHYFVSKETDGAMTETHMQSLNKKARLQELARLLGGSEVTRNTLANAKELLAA
# [12] = system: Klebsiella pneumoniae; assay: Antimicrobial activity against multidrug-resistant Klebsiella pneumoniae 16 in presence of efflux pump inhibitor PAbetaN by microdilution broth method; assay type: functional
# [13] = system: Staphylococcus aureus; assay: Antibacterial activity against methicillin resistant Staphylococcus aureus NCTC 13616 by microdilution broth method; assay type: functional
# [14] = system: Pseudomonas aeruginosa; assay: Antimicrobial activity against multidrug-resistant Pseudomonas aeruginosa NCTC 13437 in presence of efflux pump inhibitor PAbetaN by microdilution broth method; assay type: functional
# [15] = system: Klebsiella pneumoniae; assay: Antimicrobial activity against multidrug-resistant Klebsiella pneumoniae 16 by microdilution broth method; assay type: functional
# [16] = system: Pseudomonas aeruginosa; assay: Antimicrobial activity against multidrug-resistant Pseudomonas aeruginosa NCTC 13437 in presence of efflux pump inhibitor CCCP by microdilution broth method; assay type: functional
# [17] = Selectivity ratio of cytotoxicity against human WI38 cells to MIC for Acinetobacter baumannii ATCC 17978; assay type: toxicity, cell-based
# [18] = system: Escherichia coli; assay: Antimicrobial activity against multidrug-resistant Escherichia coli 319238/UR by microdilution broth method; assay type: functional
# [19] = Cytotoxicity against human WI38 cells assessed as cell viability at 20 uM measured after 24 hrs by MTT assay relative to control; assay type: cell-based, WI-38; conditions: read-out: Activity
# [20] = Selectivity ratio of cytotoxicity against human WI38 cells to MIC for Pseudomonas aeruginosa PAO1; assay type: toxicity, cell-based
# [21] = Selectivity ratio of cytotoxicity against human WI38 cells to MIC for methicillin sensitive Staphylococcus aureus NCTC 6571; assay type: toxicity, cell-based
# [22] = target: T3, LexA repressor (Escherichia coli) (UniProt P0A7C2); assay: Induction of Escherichia coli K12 MG1655 lexA promotor measured at 30 mins interval for 20 hrs by fluorescence assay relative to control; conditions: Escherichia coli str. K-12 substr. MG1655
# T3 sequence (whole entry): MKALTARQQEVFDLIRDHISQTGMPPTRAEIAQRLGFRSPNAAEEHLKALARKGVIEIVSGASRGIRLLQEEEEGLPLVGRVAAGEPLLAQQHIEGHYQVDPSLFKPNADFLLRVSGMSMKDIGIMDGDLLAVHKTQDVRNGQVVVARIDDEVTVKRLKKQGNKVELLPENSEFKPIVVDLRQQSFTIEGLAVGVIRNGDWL
# [23] = system: Pseudomonas aeruginosa; assay: Antimicrobial activity against Pseudomonas aeruginosa PAO1 in presence of efflux pump inhibitor PAbetaN by microdilution broth method; assay type: functional
# [24] = system: Burkholderia multivorans; assay: Antimicrobial activity against multidrug-resistant Burkholderia multivorans C1576 by microdilution broth method; assay type: functional
# [25] = system: Acinetobacter baumannii; assay: Antimicrobial activity against multidrug-resistant Acinetobacter baumannii AYE in presence of efflux pump inhibitor PAbetaN by microdilution broth method; assay type: functional
# [26] = system: Klebsiella pneumoniae; assay: Antimicrobial activity against Klebsiella pneumoniae tnkp1_lr150124p14q189 by microdilution broth method; assay type: functional
# [27] = system: Acinetobacter baumannii; assay: Antimicrobial activity against multidrug-resistant Acinetobacter baumannii NCTC 13424 in presence of efflux pump inhibitor PAbetaN by microdilution broth method; assay type: functional
# [28] = Selectivity ratio of cytotoxicity against human WI38 cells to MIC for multidrug-resistant Pseudomonas aeruginosa NCTC 13437; assay type: toxicity, cell-based
# [29] = system: Escherichia coli; assay: Antimicrobial activity against multidrug-resistant Escherichia coli CFI_033_NDM by microdilution broth method; assay type: functional
# [30] = system: Escherichia coli; assay: Antimicrobial activity against multidrug-resistant Escherichia coli NCTC 12923 by microdilution broth method; assay type: functional
# [31] = system: Escherichia coli; assay: Antimicrobial activity against multidrug-resistant Escherichia coli CFI_161_NDM_5_OXA_181 by microdilution broth method; assay type: functional
# Sequence of DNA gyrase (P0A0K8 whole entry): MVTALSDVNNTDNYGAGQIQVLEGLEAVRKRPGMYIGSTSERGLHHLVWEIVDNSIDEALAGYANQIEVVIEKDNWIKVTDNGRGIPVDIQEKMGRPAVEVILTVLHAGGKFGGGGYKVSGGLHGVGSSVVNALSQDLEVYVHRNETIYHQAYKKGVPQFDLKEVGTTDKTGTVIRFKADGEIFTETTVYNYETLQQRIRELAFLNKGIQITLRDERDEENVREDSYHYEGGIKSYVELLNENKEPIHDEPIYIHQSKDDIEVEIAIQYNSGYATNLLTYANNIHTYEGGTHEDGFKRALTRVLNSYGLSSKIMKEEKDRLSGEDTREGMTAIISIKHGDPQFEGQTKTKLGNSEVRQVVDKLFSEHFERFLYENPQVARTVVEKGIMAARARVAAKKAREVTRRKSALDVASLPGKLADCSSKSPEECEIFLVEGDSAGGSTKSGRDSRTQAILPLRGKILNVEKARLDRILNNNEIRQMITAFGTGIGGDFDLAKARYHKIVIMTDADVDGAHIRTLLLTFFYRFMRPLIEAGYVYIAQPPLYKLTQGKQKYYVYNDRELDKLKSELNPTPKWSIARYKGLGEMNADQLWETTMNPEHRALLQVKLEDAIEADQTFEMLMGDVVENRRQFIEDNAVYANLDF
# Sequence of DNA gyrase (P20831 whole entry): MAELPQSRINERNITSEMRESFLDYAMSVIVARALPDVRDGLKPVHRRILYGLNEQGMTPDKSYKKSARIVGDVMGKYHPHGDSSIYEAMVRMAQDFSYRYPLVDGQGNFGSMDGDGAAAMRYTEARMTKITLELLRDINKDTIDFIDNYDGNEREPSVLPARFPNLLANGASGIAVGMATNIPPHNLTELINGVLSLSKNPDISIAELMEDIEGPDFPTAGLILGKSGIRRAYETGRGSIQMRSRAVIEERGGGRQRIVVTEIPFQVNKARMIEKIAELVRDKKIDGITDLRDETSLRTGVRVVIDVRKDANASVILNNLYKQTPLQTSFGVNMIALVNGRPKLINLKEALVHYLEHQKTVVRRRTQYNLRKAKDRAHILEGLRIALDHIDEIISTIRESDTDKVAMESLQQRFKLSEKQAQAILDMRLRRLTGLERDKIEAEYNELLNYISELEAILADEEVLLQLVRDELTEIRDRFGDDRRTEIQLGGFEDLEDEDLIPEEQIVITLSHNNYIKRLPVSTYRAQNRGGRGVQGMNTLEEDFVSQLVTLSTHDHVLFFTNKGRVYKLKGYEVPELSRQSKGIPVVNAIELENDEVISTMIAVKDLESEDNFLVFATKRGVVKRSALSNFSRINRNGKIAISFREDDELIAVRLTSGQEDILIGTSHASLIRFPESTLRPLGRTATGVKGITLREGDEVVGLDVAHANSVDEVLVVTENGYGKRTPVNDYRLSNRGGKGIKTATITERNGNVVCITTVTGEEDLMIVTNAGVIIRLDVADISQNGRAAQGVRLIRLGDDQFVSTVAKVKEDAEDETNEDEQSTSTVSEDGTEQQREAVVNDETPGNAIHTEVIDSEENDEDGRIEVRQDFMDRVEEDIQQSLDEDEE
Structure (SMILES),Ratio [1],Ratio [2],MIC [3],Ratio [4],MIC [5],fold change (FC) [6],MIC [7],MIC [8],selectivity ratio [9],fold change (FC) [11],MIC [12],MIC [13],MIC [14],MIC [15],MIC [16],selectivity ratio [17],MIC [18],"viability at 24 h, 20 µM [19]",selectivity ratio [20],selectivity ratio [21],further results
COc1cc2c(cc1OCCCC(=O)Nc1cc(C(=O)Nc3ccc4oc(C(=O)N5CCSCC5)cc4c3)n(C)c1)N=C[C@@H]1CCCN1C2=O,4,>=8 - 64,4 µg/mL,> 8,1 µg/mL,8 to 10,16 µg/mL,1 µg/mL,100,6 to 11,2 µg/mL,2 µg/mL,> 32 µg/mL,1 µg/mL,> 32 µg/mL,10,1 µg/mL,> 85%,10,100,IC50 [10]: Nd(Insoluble); fold change (FC) [22]: 5 to 9; MIC [23]: 32 µg/mL; MIC [24]: 16 µg/mL; MIC [25]: 2 µg/mL; MIC [26]: > 128 µg/mL; MIC [27]: 2 µg/mL; selectivity ratio [28]: 10; MIC [29]: 1 µg/mL; MIC [30]: 2 µg/mL; MIC [31]: 1 µg/mL
COc1cc2c(cc1OCCCC(=O)Nc1cc(C(=O)Nc3ccc4sc(C(=O)N(C)C)cc4c3)n(C)c1)N=C[C@@H]1CCCN1C2=O,4,>=4 - 16,0.25 µg/mL,> 8,0.125 µg/mL,8 to 10,1 to 2 µg/mL,2 µg/mL,100,6 to 11,2 µg/mL,0.03 µg/mL,16 µg/mL,0.25 to 1 µg/mL,> 32 µg/mL,10,0.5 µg/mL,> 85%,10,100,IC50 ([10]; read-out: IC50 (converted)): 4.81 µM; fold change (FC) [22]: 5 to 9; MIC [23]: 2 µg/mL; MIC [24]: 1 µg/mL; MIC [25]: 0.25 µg/mL; MIC [26]: 16 to 32 µg/mL; MIC [27]: 0.25 µg/mL; selectivity ratio [28]: 10; MIC [29]: 0.5 µg/mL; MIC [30]: 0.5 µg/mL; MIC [31]: 0.5 µg/mL
